Source: patent US20220117968A1, “THIENO[2,3-D)PYRIMIDINES AND BENZOFURO(3,2-D)PYRIMIDINES AS ANTIMICROBIAL AGENTS” (Saint Louis University, priority 2017, published 2022)
≈ marks a conversion by molar mass, not a printed value. Where a name gives a salt, the structure may show the parent alone. Read-outs that look alike come from different tables or passages of the source.

System: WT Mtb Erdman strain
Assay: Microplate Alamar Blue Assay (MABA)
Assay type: cell-based
Details: Mycobacterium tuberculosis; for MIC50: read-out: MABA MIC50; for MIC90: read-out: MABA MIC90
[1] = concentration that inhibits mycobacterial survival by 50%, Middlebrook 7H9 media, 7 days at 37° C., resazurin 24 hours
[2] = concentration that inhibits mycobacterial survival by 90%, Middlebrook 7H9 media, 7 days at 37° C., resazurin 24 hours

| SMILES | MIC50 [1] [µM] | MIC90 [2] [µM] | MIC50 [µM] | MIC90 [µM] |
| --- | --- | --- | --- | --- |
| CCCCNc1nc(CC)nc2sc(C)cc12 [Example 0728, N-butyl-2-ethyl-6-methylthieno[2,3-d]pyrimidin-4-amine] | 0.182 (≈ 0.0454 µg/mL) | 0.524 (≈ 0.131 µg/mL) |  |  |
| Cc1nc(NCc2ccccc2)c2c(C)c(C)sc2n1 [Example 0795, N-Benzyl-2,5,6-trimethylthieno[2,3-d]pyrimidin-4-amine] | 25.4 (≈ 7.2 µg/mL) | 28.4 (≈ 8.05 µg/mL) |  |  |
| CCCCNc1nc(C)nc2sc(C)c(C)c12 [Example 0796, N-butyl-2,5,6-trimethylthieno[2,3-d]pyrimidin-4-amine trifluoroacetate] |  |  | > 50 | > 50 |
| Cc1nc(Nc2ccccc2)c2c(C)c(C)sc2n1 [Example 0797, 2,5,6-Trimethyl-N-phenylthieno[2,3-d]pyrimidin-4-amine] | > 50 | > 50 |  |  |
| Cc1nc(NCCc2ccccc2)c2c(C)c(C)sc2n1 [Example 0798, 2,5,6-Trimethyl-N-(2-phenylethyl)thieno[2,3-d]pyrimidin-4-amine] | 27.4 (≈ 8.15 µg/mL) | 32.9 (≈ 9.79 µg/mL) |  |  |
| CCc1nc(NC(C(=O)O)C(C)C)c2cc(C)sc2n1 (stereo not drawn) [Example 0851, 2-({2-ethyl-6-methylthieno[2,3-d]pyrimidin-4-yl}amino)-3-methylbutanoic acid] | > 50 | > 50 |  |  |
| CCc1nc(NCCCN(C)C)c2cc(C)sc2n1 [Example 0935, [3-({2-ethyl-6-methylthieno[2,3-d]pyrimidin-4-yl}amino)propyl]dimethylamine] | > 50 | > 50 |  |  |
| CCc1nc(NCCCC(F)(F)F)c2cc(C)sc2n1 [Example 1020, 2-Ethyl-6-methyl-N-(4,4,4-trifluorobutyl)thieno[2,3-d]pyrimidin-4-amine] | 0.116 (≈ 0.0352 µg/mL) | 0.163 (≈ 0.0494 µg/mL) |  |  |
| CCc1nc(NCCCc2ccccc2)c2cc(C)sc2n1 [Example 1023, 2-Ethyl-6-methyl-N-(3-phenylpropyl)thieno[2,3-d]pyrimidin-4-amine] | 0.0266 (≈ 0.00828 µg/mL) | 0.108 (≈ 0.0336 µg/mL) |  |  |
| Cc1cc2c(NC3CC3)nc(-c3ccccc3)nc2s1 [Example 1062, N-Cyclopropyl-6-methyl-2-phenyl-thieno[2,3-d]pyrimidin-4-amine] | 2.88 (≈ 0.81 µg/mL) | 6.01 (≈ 1.69 µg/mL) |  |  |
| Cc1cc2c(NC3CC3)nc(Cc3ccc(F)cc3)nc2s1 [Example 1063, N-Cyclopropyl-2-[(4-fluorophenyl)methyl]-6-methyl-thieno[2,3-d]pyrimidin-4-amine] | 21 (≈ 6.58 µg/mL) | 41.7 (≈ 13.1 µg/mL) |  |  |
| CCc1nc(NC2CC2)c2oc3ccccc3c2n1 [Example 1142, N-cyclopropyl-2-ethyl-benzofuro[3,2-d]pyrimidin-4-amine] | 8.37 (≈ 2.12 µg/mL) | 24.8 (≈ 6.28 µg/mL) |  |  |
| CCc1nc(NC2CC2)c2cc(Br)sc2n1 [Example 1146, 6-Bromo-N-cyclopropyl-2-ethyl-thieno[2,3-d]pyrimidin-4-amine] | 5.98 (≈ 1.78 µg/mL) | 13.8 (≈ 4.12 µg/mL) |  |  |
| CCc1nc(NC2CC2)c2cc(-c3ccccc3)sc2n1 [Example 1150, N-Cyclopropyl-2-ethyl-6-phenyl-thieno[2,3-d]pyrimidin-4-amine] | 21.1 (≈ 6.23 µg/mL) | 23.1 (≈ 6.82 µg/mL) |  |  |
| Cc1nc(NC2CC2)c2oc3ccccc3c2n1 [Example 1151, N-Cyclopropyl-2-methyl-benzofuro[3,2-d]pyrimidin-4-amine] | 11.1 (≈ 2.66 µg/mL) | 33.9 (≈ 8.11 µg/mL) |  |  |
| C=C(C)c1cc2c(NC3CC3)nc(CC)nc2s1 [Example 1154, N-Cyclopropyl-2-ethyl-6-(prop-1-en-2-yl)thieno[2,3-d]pyrimidin-4-amine] | 45.9 (≈ 11.9 µg/mL) | > 50 |  |  |
| CCc1nc(NC2CC2)c2cc(C3CC3)sc2n1 [Example 1161, N,6-Dicyclopropyl-2-ethyl-thieno[2,3-d]pyrimidin-4-amine] | 31.3 (≈ 8.12 µg/mL) | 36.3 (≈ 9.42 µg/mL) |  |  |

| SMILES | MIC50 [1] [µM] | MIC90 [2] [µM] | MIC50 [µM] | MIC90 [µM] |
| --- | --- | --- | --- | --- |
| CCCCNc1nc(CC)nc2sccc12 [Example 1176, N-butyl-2-ethyl-thieno[2,3-d]pyrimidin-4-amine] | 3.8 (≈ 0.894 µg/mL) | 14.4 (≈ 3.39 µg/mL) |  |  |
| CCc1nc(NC2CC2)c2cc(C(F)(F)F)sc2n1 [Example 1177, N-Cyclopropyl-2-ethyl-6-(trifluoromethyl)thieno[2,3-d]pyrimidin-4-amine] | 30.8 (≈ 8.85 µg/mL) | > 50 |  |  |
| CCc1nc(NC2CC2)c2cc(Cl)sc2n1 [Example 1181, 6-Chloro-N-cyclopropyl-2-ethyl-thieno[2,3-d]pyrimidin-4-amine] | 3.06 (≈ 0.776 µg/mL) | 7.64 (≈ 1.94 µg/mL) |  |  |
| Cc1nc(NCCCc2ccccc2)c2oc3ccccc3c2n1 [Example 1299, 2-Methyl-N-(3-phenylpropyl)benzofuro[3,2-d]pyrimidin-4-amine] | 0.128 (≈ 0.0406 µg/mL) | 0.188 (≈ 0.0597 µg/mL) |  |  |
| CCc1nc(NCCCc2ccccc2)c2oc3ccccc3c2n1 [Example 1300, 2-Ethyl-N-(3-phenylpropyl)benzofuro[3,2-d]pyrimidin-4-amine] | 0.164 (≈ 0.0544 µg/mL) | 0.389 (≈ 0.129 µg/mL) |  |  |
| CCCCNc1nc(CC)nc2c1oc1ccccc12 [Example 1301, N-Butyl-2-ethylbenzofuro[3,2-d]pyrimidin-4-amine] | 3.8 (≈ 1.02 µg/mL) | 8.97 (≈ 2.42 µg/mL) |  |  |
| CCc1nc(NCc2ccc(Cl)cc2)c2cc(C)sc2n1 [Example 1302, N-(4-Chlorobenzyl)-2-ethyl-6-methylthieno[2,3-d]pyrimidin-4-amine] | 2.63 (≈ 0.836 µg/mL) | 5.54 (≈ 1.76 µg/mL) |  |  |
| CCc1nc(NCc2ccccc2)c2cc(C)sc2n1 [Example 1303, N-Benzyl-2-ethyl-6-methylthieno[2,3-d]pyrimidin-4-amine] | 10.6 (≈ 3 µg/mL) | 20.8 (≈ 5.89 µg/mL) |  |  |
| CCc1nc(Nc2ccccc2)c2cc(C)sc2n1 [Example 1304, 2-Ethyl-6-methyl-N-phenylthieno[2,3-d]pyrimidin-4-amine] | 25.2 (≈ 6.79 µg/mL) | 41.6 (≈ 11.2 µg/mL) |  |  |
| CCc1nc(NCCCc2ccccc2)c2ccsc2n1 [Example 1305, 2-Ethyl-N-(3-phenylpropyl)thieno[2,3-d]pyrimidin-4-amine] | 0.113 (≈ 0.0336 µg/mL) | 0.145 (≈ 0.0431 µg/mL) |  |  |
| CCc1nc(NCCc2ccccc2)c2cc(C)sc2n1 [Example 1306, 2-Ethyl-6-methyl-N-phenethylthieno[2,3-d]pyrimidin-4-amine] | 0.125 (≈ 0.0372 µg/mL) | 0.183 (≈ 0.0544 µg/mL) |  |  |
| CCc1nc(NCCc2ccc(Cl)cc2Cl)c2cc(C)sc2n1 [Example 1307, N-[2-(2,4-Dichlorophenyl)ethyl]-2-ethyl-6-methylthieno[2,3-d]pyrimidin-4-amine] | 0.526 (≈ 0.193 µg/mL) | 1.18 (≈ 0.432 µg/mL) |  |  |
| CCc1nc(NCc2ccccn2)c2cc(C)sc2n1 [Example 1308, 2-Ethyl-6-methyl-N-(2-pyridylmethyl)thieno[2,3-d]pyrimidin-4-amine] | 21.6 (≈ 6.14 µg/mL) | 31.6 (≈ 8.99 µg/mL) |  |  |
| Cc1cc2c(NCCCc3ccccc3)nc(C(F)(F)F)nc2s1 [Example 1536, 6-Methyl-N-(3-phenylpropyl)-2-(trifluoromethyl)thieno[2,3-d]pyrimidin-4-amine] | 0.386 (≈ 0.136 µg/mL) | 0.479 (≈ 0.168 µg/mL) |  |  |
| FC(F)(F)c1nc(NCCCc2ccccc2)c2ccsc2n1 [Example 1537, N-(Phenylpropyl)-2-(trifluoromethyl)thieno[2,3-d]pyrimidin-4-amine] | 0.439 (≈ 0.148 µg/mL) | 1.14 (≈ 0.385 µg/mL) |  |  |
| Cc1cc2c(NCCCc3ccccc3)nc(C(F)(F)C(F)(F)F)nc2s1 [Example 1538, 6-Methyl-2-(1,1,2,2,2-pentafluoroethyl)-N-(3-phenylpropyl)thieno[2,3-d]pyrimidin-4-amine] | 0.597 (≈ 0.24 µg/mL) | 1.1 (≈ 0.442 µg/mL) |  |  |
